From ChEMBL document CHEMBL3132769, “Fragment growing to retain or alter the selectivity of anchored kinase hinge-binding fragments” (Medchemcomm, 2014)

What was measured:
[1] = target: T1, Protein kinase C zeta type (Homo sapiens) (UniProt Q05513); assay: Inhibition of human full length PKC zeta expressed in baculovirus assessed as substrate phosphorylation using fluorescence-labelled peptides as substrate at 0.2 uM after 90 mins by microfluidic peptide phosphorylation assay
T1 sequence (whole entry): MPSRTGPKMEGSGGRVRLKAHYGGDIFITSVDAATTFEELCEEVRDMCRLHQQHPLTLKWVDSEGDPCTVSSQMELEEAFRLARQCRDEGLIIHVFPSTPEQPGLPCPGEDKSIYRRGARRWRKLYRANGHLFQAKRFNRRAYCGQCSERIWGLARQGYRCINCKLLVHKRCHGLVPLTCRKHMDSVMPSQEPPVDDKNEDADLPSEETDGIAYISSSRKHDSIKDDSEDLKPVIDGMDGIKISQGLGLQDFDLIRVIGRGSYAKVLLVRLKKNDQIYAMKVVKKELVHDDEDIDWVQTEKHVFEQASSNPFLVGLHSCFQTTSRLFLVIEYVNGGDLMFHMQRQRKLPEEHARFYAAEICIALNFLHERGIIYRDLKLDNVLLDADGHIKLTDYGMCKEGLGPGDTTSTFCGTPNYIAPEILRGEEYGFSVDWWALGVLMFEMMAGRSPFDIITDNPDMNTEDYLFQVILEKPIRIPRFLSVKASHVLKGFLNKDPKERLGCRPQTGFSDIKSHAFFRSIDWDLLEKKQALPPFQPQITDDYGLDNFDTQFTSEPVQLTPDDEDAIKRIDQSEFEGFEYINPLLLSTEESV

[2] = target: T2, Serine/threonine-protein kinase D2 (Homo sapiens) (UniProt Q9BZL6); assay: Inhibition of human full length PKD2 expressed in baculovirus assessed as substrate phosphorylation using fluorescence-labelled peptides as substrate at 420 uM after 90 mins by microfluidic peptide phosphorylation assay
T2 sequence (whole entry): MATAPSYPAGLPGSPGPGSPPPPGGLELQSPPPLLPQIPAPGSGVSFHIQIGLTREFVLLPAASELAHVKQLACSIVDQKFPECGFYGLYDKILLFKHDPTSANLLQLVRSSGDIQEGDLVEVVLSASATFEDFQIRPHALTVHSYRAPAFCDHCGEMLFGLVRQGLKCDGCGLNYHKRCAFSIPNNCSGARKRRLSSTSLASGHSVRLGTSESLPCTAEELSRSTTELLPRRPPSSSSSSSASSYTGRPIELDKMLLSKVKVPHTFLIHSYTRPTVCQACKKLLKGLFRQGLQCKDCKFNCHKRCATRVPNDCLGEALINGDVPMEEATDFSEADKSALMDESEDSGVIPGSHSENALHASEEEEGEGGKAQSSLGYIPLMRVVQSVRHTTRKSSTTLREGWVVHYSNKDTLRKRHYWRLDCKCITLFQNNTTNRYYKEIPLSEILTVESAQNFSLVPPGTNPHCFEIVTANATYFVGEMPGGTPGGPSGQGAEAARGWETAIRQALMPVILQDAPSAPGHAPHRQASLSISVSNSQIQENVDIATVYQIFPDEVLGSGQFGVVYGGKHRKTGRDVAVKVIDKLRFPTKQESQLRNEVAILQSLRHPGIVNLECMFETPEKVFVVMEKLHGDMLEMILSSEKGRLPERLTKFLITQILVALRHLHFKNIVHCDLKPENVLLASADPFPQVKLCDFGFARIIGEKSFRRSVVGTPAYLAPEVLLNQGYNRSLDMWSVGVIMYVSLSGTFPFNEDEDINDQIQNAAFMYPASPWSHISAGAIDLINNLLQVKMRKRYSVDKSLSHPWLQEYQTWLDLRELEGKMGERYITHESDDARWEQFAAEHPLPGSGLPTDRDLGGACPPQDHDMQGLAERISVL

[3] = target: Protein kinase C delta type (Homo sapiens) (UniProt Q05655); assay: Inhibition of human truncated PKC delta expressed in baculovirus assessed as substrate phosphorylation using fluorescence-labelled peptides as substrate at 420 uM after 90 mins by microfluidic peptide phosphorylation assay
[4] = target: Tyrosine-protein kinase ABL2 (Homo sapiens) (UniProt P42684); assay: Inhibition of human truncated Arg expressed in baculovirus assessed as substrate phosphorylation using fluorescence-labelled peptides as substrate at 420 uM after 90 mins by microfluidic peptide phosphorylation assay
[5] = target: Hepatocyte growth factor receptor (Homo sapiens) (UniProt P08581); assay: Inhibition of human MET cytoplasmic domain expressed in baculovirus assessed as substrate phosphorylation using fluorescence-labelled peptides as substrate at 9 uM after 90 mins by microfluidic peptide phosphorylation assay
[6] = target: MAP kinase-activated protein kinase 3 (Homo sapiens) (UniProt Q16644); details: 0.1 uM
Description: Inhibition of human full length MAPKAPK3 expressed in Escherichia coli cell assessed as substrate phosphorylation using fluorescence-labelled peptides as substrate at 0.1 uM after 90 mins by microfluidic peptide phosphorylation assay

[7] = target: Protein kinase C gamma type (Homo sapiens) (UniProt P05129); assay: Inhibition of human truncated PKC gamma expressed in baculovirus assessed as substrate phosphorylation using fluorescence-labelled peptides as substrate at 95 uM after 90 mins by microfluidic peptide phosphorylation assay
[8] = target: T3, cGMP-dependent protein kinase 1 (Homo sapiens) (UniProt Q13976); assay: Inhibition of human full length PKG-1a expressed in baculovirus assessed as substrate phosphorylation using fluorescence-labelled peptides as substrate at […] after 90 mins by microfluidic peptide phosphorylation assay
T3 sequence (whole entry): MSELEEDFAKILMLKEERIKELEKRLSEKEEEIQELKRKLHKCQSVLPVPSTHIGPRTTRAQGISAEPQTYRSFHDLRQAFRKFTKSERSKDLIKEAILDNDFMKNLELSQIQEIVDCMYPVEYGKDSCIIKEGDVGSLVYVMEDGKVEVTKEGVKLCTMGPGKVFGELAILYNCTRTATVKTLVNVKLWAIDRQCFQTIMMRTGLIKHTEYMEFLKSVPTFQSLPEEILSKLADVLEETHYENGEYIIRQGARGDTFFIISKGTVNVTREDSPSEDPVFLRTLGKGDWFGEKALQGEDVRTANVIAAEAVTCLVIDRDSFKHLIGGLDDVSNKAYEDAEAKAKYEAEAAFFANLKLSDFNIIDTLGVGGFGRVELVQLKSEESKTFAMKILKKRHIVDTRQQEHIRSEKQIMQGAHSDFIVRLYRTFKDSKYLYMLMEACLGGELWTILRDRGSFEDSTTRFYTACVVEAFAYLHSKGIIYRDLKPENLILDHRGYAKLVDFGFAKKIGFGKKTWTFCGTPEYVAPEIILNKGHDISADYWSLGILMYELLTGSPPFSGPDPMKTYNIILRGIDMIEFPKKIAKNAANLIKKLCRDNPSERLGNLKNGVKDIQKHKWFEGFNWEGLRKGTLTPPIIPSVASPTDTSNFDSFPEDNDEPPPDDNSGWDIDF

[9] = target: Fibroblast growth factor receptor 1 (Homo sapiens) (UniProt P11362); assay: Inhibition of human FGFR1 catalytic domain expressed in baculovirus assessed as substrate phosphorylation using fluorescence-labelled peptides as substrate at 70 uM after 90 mins by microfluidic peptide phosphorylation assay
Fibroblast growth factor receptor 1 (Homo sapiens), sequence (P11362 22-822 limits assumed): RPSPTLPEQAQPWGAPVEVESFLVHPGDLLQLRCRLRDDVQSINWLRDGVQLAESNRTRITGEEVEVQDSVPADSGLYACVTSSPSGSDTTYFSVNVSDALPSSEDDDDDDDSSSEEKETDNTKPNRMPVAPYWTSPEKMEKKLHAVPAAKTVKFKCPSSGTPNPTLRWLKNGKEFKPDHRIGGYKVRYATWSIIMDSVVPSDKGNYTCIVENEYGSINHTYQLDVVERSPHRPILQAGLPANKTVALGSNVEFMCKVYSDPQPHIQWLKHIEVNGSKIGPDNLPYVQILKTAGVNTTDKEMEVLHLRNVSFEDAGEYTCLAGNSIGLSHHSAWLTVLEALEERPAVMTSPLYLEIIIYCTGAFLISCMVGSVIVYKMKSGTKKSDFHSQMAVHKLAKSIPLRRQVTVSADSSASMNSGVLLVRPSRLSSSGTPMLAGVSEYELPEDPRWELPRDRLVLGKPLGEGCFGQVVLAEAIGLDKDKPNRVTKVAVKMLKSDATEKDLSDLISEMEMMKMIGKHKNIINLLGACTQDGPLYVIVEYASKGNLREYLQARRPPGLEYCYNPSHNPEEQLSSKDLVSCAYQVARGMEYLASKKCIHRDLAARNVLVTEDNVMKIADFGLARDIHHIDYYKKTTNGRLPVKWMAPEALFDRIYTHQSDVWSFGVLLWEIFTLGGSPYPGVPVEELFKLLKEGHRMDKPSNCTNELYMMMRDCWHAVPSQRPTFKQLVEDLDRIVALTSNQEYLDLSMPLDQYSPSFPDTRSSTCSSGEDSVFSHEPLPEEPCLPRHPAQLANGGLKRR

Tyrosine-protein kinase ABL2 (Homo sapiens), sequence (P42684 whole entry, the tested form may be a part): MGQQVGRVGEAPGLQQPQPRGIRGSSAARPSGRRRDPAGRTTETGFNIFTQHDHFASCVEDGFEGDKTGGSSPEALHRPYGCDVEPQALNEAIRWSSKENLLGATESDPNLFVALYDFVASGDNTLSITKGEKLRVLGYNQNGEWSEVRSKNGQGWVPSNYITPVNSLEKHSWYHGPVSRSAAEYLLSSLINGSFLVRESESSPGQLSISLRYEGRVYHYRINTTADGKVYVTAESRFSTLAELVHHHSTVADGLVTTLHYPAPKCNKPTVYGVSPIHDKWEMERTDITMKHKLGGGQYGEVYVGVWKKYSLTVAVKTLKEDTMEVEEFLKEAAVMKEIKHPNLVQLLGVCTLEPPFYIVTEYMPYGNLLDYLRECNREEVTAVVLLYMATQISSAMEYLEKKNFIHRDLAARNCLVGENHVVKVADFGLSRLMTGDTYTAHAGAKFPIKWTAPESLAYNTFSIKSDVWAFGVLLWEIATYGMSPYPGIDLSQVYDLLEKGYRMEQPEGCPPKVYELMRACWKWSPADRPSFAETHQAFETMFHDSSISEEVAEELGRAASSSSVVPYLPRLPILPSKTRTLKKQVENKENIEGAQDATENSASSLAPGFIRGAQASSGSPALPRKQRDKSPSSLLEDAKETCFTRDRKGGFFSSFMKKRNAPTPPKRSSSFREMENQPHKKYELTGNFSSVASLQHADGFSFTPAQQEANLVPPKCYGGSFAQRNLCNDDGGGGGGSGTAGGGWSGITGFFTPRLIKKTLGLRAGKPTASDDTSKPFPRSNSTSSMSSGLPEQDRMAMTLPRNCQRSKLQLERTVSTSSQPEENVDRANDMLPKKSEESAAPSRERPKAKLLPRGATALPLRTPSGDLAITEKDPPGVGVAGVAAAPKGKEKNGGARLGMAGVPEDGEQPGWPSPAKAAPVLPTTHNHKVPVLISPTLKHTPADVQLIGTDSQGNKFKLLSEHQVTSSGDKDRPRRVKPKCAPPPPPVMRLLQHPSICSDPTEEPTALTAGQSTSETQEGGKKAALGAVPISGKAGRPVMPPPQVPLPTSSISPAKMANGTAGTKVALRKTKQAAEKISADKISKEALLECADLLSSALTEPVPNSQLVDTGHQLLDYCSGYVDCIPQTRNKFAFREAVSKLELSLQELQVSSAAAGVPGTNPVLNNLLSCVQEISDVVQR
Protein kinase C delta type (Homo sapiens), sequence (Q05655 whole entry, looked up, the tested form may be a part): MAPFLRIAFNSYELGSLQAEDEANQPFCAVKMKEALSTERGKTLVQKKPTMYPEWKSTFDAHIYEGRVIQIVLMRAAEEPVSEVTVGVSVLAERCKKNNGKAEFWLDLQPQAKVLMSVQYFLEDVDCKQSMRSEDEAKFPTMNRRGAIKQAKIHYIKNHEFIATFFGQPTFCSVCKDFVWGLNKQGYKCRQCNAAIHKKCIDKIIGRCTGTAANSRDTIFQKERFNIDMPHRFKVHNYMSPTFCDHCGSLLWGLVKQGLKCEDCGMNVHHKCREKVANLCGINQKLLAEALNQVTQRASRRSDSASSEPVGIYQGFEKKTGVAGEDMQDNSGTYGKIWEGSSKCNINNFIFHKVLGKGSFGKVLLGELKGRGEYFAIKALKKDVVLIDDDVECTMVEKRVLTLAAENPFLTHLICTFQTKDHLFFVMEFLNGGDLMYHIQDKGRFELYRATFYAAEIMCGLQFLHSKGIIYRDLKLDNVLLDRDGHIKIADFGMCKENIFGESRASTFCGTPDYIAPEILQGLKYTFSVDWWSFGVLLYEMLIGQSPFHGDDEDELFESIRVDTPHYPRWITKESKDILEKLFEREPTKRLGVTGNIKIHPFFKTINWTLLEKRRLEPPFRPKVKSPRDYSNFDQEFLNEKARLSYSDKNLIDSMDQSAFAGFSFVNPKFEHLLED
MAP kinase-activated protein kinase 3 (Homo sapiens), sequence (Q16644 whole entry, looked up, the tested form may be a part): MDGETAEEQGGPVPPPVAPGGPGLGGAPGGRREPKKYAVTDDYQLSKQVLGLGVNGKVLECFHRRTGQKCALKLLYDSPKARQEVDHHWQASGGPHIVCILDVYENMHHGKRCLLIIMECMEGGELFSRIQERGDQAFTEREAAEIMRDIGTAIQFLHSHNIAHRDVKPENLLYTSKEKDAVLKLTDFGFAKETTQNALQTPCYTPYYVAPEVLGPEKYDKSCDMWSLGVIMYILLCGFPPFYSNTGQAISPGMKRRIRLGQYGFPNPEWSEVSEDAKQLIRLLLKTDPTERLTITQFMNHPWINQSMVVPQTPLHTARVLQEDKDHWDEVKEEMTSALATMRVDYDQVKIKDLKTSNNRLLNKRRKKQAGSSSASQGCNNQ

`Clc1ccc(C2(c3ccc(-c4ncnc5[nH]cnc45)cc3)CCNCC2)cc1` showed an inhibition [1] of 1%.

`c1nc(N2CCOCC2)c2nc[nH]c2n1` gave an inhibition [2] of 70%, an inhibition [3] of 78.5% and an inhibition [4] of 54.5%.

With `NCC1CN(c2ncnc3[nH]c4cnccc4c23)CCO1` (centres undefined) the inhibition [5] was 0%.

Molecule `C[C@H](CN(C)C)Oc1nc(Nc2cc3cccc(Cl)c3cn2)cnc1C#N` has an inhibition [6] of 0%.

With `NCCc1ccc(-c2ncnc3[nH]cnc23)cc1` the inhibition [7] was 71%.

In the case of `COC(=O)c1cnc(Nc2cnc(C#N)cn2)cc1NCC1CCNCC1`, the inhibition [8] was 4.5%.

Molecule `CNCc1ccc(-c2ncnc3[nH]cnc23)cc1` has an inhibition [9] of 43%.
